# Test results reported in patent US8008260B2, “Methods of protecting against apoptosis using lipopeptides” (Cleveland Clinic Foundation, priority 2005, dated 2011).
# Peptide text beside a SMILES is read from it. * marks the point of attachment. Propyl(2R-PamO,3-PamO) = CCCCCCCCCCCCCCCC(=O)OC[C@H](C*)OC(=O)CCCCCCCCCCCCCCC
# Assays:
# ICR mice [1] = test: Radiation LD50/30 and dose modification factor (DMF30); type: in vivo
# Procedure: To determine DMF (dose modification factor), 3 μg of CBLB601/mouse was injected i.m. 24 hr prior to irradiation and control mice were injected with PBS. Both drug-injected and control groups received a single dose of TBI covering the dose range that leads to 10-90% mortality within the chosen time intervals (7 days for the gastrointestinal syndrome mortality, and 30 days for the hematopoietic syndrome mortality). The percent mortality-radiation dose graphs were built and LD50/7 and LD50/30 (LD50 at 7 days and 30 days, respectively) were calculated using probit or logit statistical analysis. DMF (also known as dose reduction factor, DRF) was calculated as a ratio of radiation LD50 for CBLB601-treated groups and radiation LD50 for vehicle-treated groups of mice for the chosen survival time point, 7 or 30 days. To calculate DMF30, which is the DMF at day 30 post-irradiation, the radiation LD50/30 values for mice treated with PBS or 3 μg of CBLB601 was determined. For this, PBS-injected groups were irradiated with doses of 6, 6.5, 7, and 7.7 Gy of TBI, and CBLB601-injected groups were irradiated with doses of 10, 10.5, 11, 11.5, and 12 Gy of TBI. […] However, inconsistency in the response to some radiation doses (7 Gy appeared non-toxic whereas 6.5 Gy caused 60% lethality at 30 days) in the control mice precluded an accurate calculation of the DMF30 for CBLB601. Nevertheless, it was expected that the LD50/30 for ICR mice was around 7 Gy [an average for the majority of mouse strains; Monobe et al., Radiother Oncology 73 Suppl 2: S12709, 2004)]. Thus, the value of DMF30 for CBLB601 was estimated roughly as ˜1.6.
# TLR2/TLR6 heterodimer = target: T1, TLR2/TLR6 heterodimer (Homo sapiens, UniProt O60603+Q9Y2C9); test: NF-κB-dependent reporter activity in 293 cells expressing the TLR2/TLR6 heterodimer; type: cell-based; set-up: NF-κB activation: scale not given here; conditions: in vitro activity, 293 cells expressing TLR2/TLR6
# T1 construct: expressed in transfected cells; host or cells: 293 cells
# T1 sequence (O60603 21-784): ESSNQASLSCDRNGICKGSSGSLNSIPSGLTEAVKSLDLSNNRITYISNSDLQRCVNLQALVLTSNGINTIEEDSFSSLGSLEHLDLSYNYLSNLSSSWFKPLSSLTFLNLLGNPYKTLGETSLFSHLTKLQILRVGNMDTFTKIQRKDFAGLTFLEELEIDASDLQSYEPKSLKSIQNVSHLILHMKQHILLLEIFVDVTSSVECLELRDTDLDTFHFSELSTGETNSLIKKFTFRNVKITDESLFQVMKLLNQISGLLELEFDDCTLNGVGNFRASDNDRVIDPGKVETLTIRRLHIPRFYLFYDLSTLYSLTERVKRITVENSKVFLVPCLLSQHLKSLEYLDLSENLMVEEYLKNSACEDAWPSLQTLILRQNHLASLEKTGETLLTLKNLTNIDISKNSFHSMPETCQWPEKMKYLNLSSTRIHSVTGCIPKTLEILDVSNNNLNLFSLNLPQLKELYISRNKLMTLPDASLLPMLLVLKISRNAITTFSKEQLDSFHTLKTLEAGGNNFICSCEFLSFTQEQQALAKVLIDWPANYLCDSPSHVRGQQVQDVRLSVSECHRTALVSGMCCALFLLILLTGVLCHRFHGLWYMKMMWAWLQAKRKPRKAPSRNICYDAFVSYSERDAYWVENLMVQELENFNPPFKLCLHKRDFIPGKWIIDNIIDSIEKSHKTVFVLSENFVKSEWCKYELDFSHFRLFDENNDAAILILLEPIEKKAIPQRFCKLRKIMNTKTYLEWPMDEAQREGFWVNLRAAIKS
# T1 sequence (Q9Y2C9 32-796): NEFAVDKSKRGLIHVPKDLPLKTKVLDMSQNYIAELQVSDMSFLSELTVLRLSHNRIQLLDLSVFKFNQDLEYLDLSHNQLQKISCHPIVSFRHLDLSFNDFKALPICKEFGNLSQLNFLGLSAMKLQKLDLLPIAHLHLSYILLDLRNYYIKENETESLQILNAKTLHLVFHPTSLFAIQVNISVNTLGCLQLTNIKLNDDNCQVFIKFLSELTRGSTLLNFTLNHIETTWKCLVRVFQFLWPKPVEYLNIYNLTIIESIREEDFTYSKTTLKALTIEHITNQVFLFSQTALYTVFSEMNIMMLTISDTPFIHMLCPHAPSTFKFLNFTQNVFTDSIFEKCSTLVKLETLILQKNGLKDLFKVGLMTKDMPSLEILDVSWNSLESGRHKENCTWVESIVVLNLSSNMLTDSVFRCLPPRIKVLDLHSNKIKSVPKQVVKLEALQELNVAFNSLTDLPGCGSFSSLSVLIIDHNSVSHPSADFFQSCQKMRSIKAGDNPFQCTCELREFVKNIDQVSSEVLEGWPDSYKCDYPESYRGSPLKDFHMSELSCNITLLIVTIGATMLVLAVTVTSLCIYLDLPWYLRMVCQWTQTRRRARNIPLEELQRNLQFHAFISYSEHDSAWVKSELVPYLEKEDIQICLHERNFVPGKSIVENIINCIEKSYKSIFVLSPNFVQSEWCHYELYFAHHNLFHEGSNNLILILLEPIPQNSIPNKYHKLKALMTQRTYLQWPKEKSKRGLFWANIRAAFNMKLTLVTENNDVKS
# Procedure: NF-κB-dependent reporter activity was measured in 293 cells that expressed the TLR2/YLR6 heterodimer. […] None of the non-palmitoylated corresponding peptides activated the NF-κB reporter (FIG. 18B). The peptide component of CBLB617 has a (−4) charge, which should prevent it from interacting with negatively charged cell surface markers. […] Table 5 summarizes the in vitro activity and solubility of all the compounds.
# ICR mice [2] = test: Immune status of mice rescued from TBI (spleen and thymus weight, histology, flagellin immunization); type: in vivo
# Procedure: To check the status of their immune systems, ICR mice were exposed to lethal (10 Gy) or non-lethal (6 Gy) doses of TBI 24 hr after they had been injected (i.m.) with 3 μg CBLB601/mouse or PBS. Groups of five mice from each condition were sacrificed very three days and their spleens and thymuses were removed and weighed. The weights of the spleens were normalized to the body weights of the corresponding animals and the results are presented in FIG. 15. PBS-treated mice that were exposed to 6 Gy of radiation took about 13-14 days to restore their spleens to normal weights, whereas CBLB601-treated mice exposed to 6 Gy of radiation had normal spleen weights by day 8. […] It took a longer period of time (˜30 days) to restore the thymuses to normal weights (not shown).
# The spleens and thymuses from control and CBLB601-injected mice were examined microscopically for morphological changes at 3, 10 and 30 days after irradiation. […] There was no evidence of recovery of the splenic white pulp depletion in either group at day 10. Regenerative lymphoid hyperplasia in the thymus was evident in both groups at day 10, with the regeneration slightly more advanced in the control that in the CBLB601-treated mice.
# To test the immune response of mice rescued from a lethal dose of gamma-irradiation (10 Gy of TBI) by CBLB601, several groups of such mice were subjected to immunization with a strong antigen, Salmonella flagellin. The mice were first immunized at 8, 18, or 20 weeks after irradiation, at which time they were 18, 25, and 33 weeks of age, respectively. Non-irradiated naïve mice at 29 weeks of age were used as a positive control for the immune response. The mice received a boost of flagellin one week after the first immunization, and another boost three weeks after the 2nd boost; anti-flagellin antibody titers were measured in mouse serum. To test the secondary immune response, the mice were bled again a month later to insure reduction of the antibody titers. This was followed by a 3rd boost of the antigen injection and measurement of anti-flagellin antibodies titers 10 days later. At the time of the 3rd boost, the irradiation mice were 38, 30, and 23 weeks old, and the control mice were 34 weeks old.
# [3] = 3 μg/mouse i.m. 24 hr prior to irradiation, ProBit analysis
smiles,measurement,setting,value
"CCCCCCCCCCCCCCCC(=O)OC[C@H](CSC[C@H](N)C(=O)N[C@@H](CO)C(=O)N[C@@H](CCCCN)C(=O)N[C@@H](CCCCN)C(=O)N[C@@H](CCCCN)C(=O)N[C@@H](CCCCN)C(=O)O)OC(=O)CCCCCCCCCCCCCCC [CBLB601, R-PAM2C-SKKKK] (H-C(Propyl(2R-PamO,3-PamO))SKKKK-OH)","radiation LD50/30, average",ICR mice [1]; [3],~11.32 Gy
same,"radiation LD50/30, range",ICR mice [1]; [3],11.07-11.61 Gy
same,DMF30 (dose modification factor at day 30),"ICR mice [1]; 3 μg/mouse i.m. 24 hr prior, control LD50/30 taken as around 7 Gy from literature",~1.6
same,NF-κB activation,TLR2/TLR6 heterodimer,100
same,time to restore the thymuses to normal weights,"ICR mice [2]; 3 μg/mouse i.m. 24 hr before TBI, not shown",~30 days
same,day by which spleen weights were normal,"ICR mice [2]; 6 Gy TBI, 3 μg/mouse i.m. 24 hr before",≤ 8 days
same,day by which spleen weights were completely restored,"ICR mice [2]; 10 Gy TBI, 3 μg/mouse i.m. 24 hr before",13 to 14 days
same,"spleen histology, extramedullary hematopoiesis","ICR mice [2]; 10 days post-irradiation, 10 Gy",mild to moderate multifocal extramedullary hematopoiesis (EMH)
same,humoral immune response against flagellin,"ICR mice [2]; mice rescued from 10 Gy TBI, immunized 8, 18 or 20 weeks after irradiation",robust humoral immune response against flagellin that was indistinguishable from that of the naïve control mice
